From ChEMBL document CHEMBL1201862, “PubChem BioAssay data set” (2004)
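Grown in 96-well plates, cells were treated for 48 hours with each compound at five concentrations. Insufficient inhibition: endpoint recorded as highest concentration tested. GI50: concentration for 50% inhibition of growth.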 Calls of active or inactive are those of the source. No stated cut-off is given here; in the data, active = GI50 up to about 1.1 µM and inactive = higher. Where a SMILES comes first, the peptide text is derived from it. [ ]: non-standard residue; d: D form. The star is where a group is joined. NMeF = CN[C@@H](Cc1ccccc1)C(=O)O; NMeV = CN[C@H](C(=O)O)C(C)C; Boc = CC(C)(C)OC(=O)*; OBn = c1ccc(CO*)cc1

What was measured:
Test in all cases: DTP human tumour cell line panel, 48 h
CCRF-CEM = test system: CCRF-CEM
HOP-92 = test system: HOP-92
SNB-19 = test system: SNB-19
PC-3 = test system: PC-3
HCC 2998 = test system: HCC 2998
HT-29 = test system: HT-29
A549 = test system: A549
HOP-62 = test system: HOP-62
MDA-MB-435 = test system: MDA-MB-435
ACHN = test system: ACHN
NCI/ADR-RES = test system: NCI/ADR-RES
HCT-15 = test system: HCT-15
SF-268 = test system: SF-268
SF-539 = test system: SF-539
CAKI-1 = test system: CAKI-1
TK-10 = test system: TK-10
K562 = test system: K562
SN12C = test system: SN12C
SF-295 = test system: SF-295
NCI-H23 = test system: NCI-H23

O=C1C/C(=C\O)C(=O)c2ccccc2N1
GI50 (CCRF-CEM): > 100 µM (inactive) | GI50 (HOP-92): > 100 µM (inactive) | GI50 (SNB-19): > 100 µM (inactive) | GI50 (PC-3): > 100 µM (inactive) | GI50 (HCC 2998): > 100 µM (inactive) | GI50 (HT-29): > 100 µM (inactive) | GI50 (A549): > 100 µM (inactive) | GI50 (HOP-62): > 100 µM (inactive) | GI50 (MDA-MB-435): > 100 µM (inactive) | GI50 (ACHN): > 100 µM (inactive) | GI50 (NCI/ADR-RES): > 100 µM (inactive) | GI50 (HCT-15): > 100 µM | GI50 (SF-268): > 100 µM (inactive) | GI50 (SF-539): > 100 µM (inactive) | GI50 (CAKI-1): > 100 µM (inactive) | GI50 (TK-10): > 100 µM (inactive) | GI50 (K562): > 100 µM (inactive) | GI50 (SN12C): > 100 µM (inactive) | GI50 (SF-295): > 100 µM (inactive) | GI50 (NCI-H23): > 100 µM (inactive)

O=C1C=C(c2ccccc2)OC1C1Sc2ccccc2NC1=O (stereo not given)
GI50 (CCRF-CEM): 6.43 µM (inactive) | GI50 (HOP-92): 9.68 µM (inactive) | GI50 (SNB-19): 4.08 µM (inactive) | GI50 (PC-3): 10.9 µM (inactive) | GI50 (HCC 2998): 5.69 µM (inactive) | GI50 (HT-29): 11.5 µM (inactive) | GI50 (A549): 3.06 µM (inactive) | GI50 (HOP-62): 1.04 µM (active) | GI50 (MDA-MB-435): 5.11 µM (inactive) | GI50 (ACHN): 4.9 µM (inactive) | GI50 (NCI/ADR-RES): 34.5 µM (inactive) | GI50 (HCT-15): 12.7 µM | GI50 (SF-268): 7.71 µM (inactive) | GI50 (SF-539): 5.38 µM (inactive) | GI50 (CAKI-1): 11.6 µM (inactive) | GI50 (TK-10): 9.23 µM (inactive) | GI50 (K562): 3.3 µM (inactive) | GI50 (SN12C): 9.23 µM (inactive) | GI50 (SF-295): 5.98 µM (inactive) | GI50 (NCI-H23): 3.77 µM (inactive)

CCOC(=O)/C=C(/C(=O)OCC)n1ccc(=O)n(Cc2cnnn2COCCOC(C)=O)c1=O
GI50 (CCRF-CEM): 0.713 µM (active) | GI50 (HOP-92): 2.08 µM (inactive) | GI50 (SNB-19): > 31.6 µM (inactive) | GI50 (PC-3): 17.5 µM (inactive) | GI50 (HCC 2998): 16.2 µM (inactive) | GI50 (HT-29): 17.5 µM (inactive) | GI50 (A549): 41.1 µM (inactive) | GI50 (HOP-62): > 73.1 µM (inactive) | GI50 (MDA-MB-435): 16.6 µM (inactive) | GI50 (ACHN): 8.73 µM (inactive) | GI50 (NCI/ADR-RES): 21.9 µM (inactive) | GI50 (HCT-15): 8.77 µM | GI50 (SF-268): 20 µM (inactive) | GI50 (SF-539): 11 µM (inactive) | GI50 (CAKI-1): 5.93 µM (inactive) | GI50 (TK-10): 7.26 µM (inactive) | GI50 (K562): 4.05 µM (inactive) | GI50 (SN12C): 22.1 µM (inactive) | GI50 (SF-295): > 100 µM (inactive) | GI50 (NCI-H23): 17.1 µM (inactive)

COC(=O)CC(C#N)(OP1(=O)OC(c2ccccc2)C(C)N1C)c1ccccc1 (stereo not given)
GI50 (CCRF-CEM): 11.5 µM (inactive) | GI50 (HOP-92): 32.3 µM (inactive) | GI50 (SNB-19): 39.3 µM (inactive) | GI50 (PC-3): 37 µM (inactive) | GI50 (HCC 2998): 16.6 µM (inactive) | GI50 (HT-29): 23.8 µM (inactive) | GI50 (A549): 34.3 µM (inactive) | GI50 (HOP-62): 30.7 µM (inactive) | GI50 (MDA-MB-435): 21.4 µM (inactive) | GI50 (ACHN): 25.9 µM (inactive) | GI50 (NCI/ADR-RES): 40.1 µM (inactive) | GI50 (HCT-15): 28.6 µM | GI50 (SF-268): 30.3 µM (inactive) | GI50 (SF-539): 37.5 µM (inactive) | GI50 (CAKI-1): 25.4 µM (inactive) | GI50 (TK-10): 29 µM (inactive) | GI50 (K562): 24.3 µM (inactive) | GI50 (SN12C): 29.6 µM (inactive) | GI50 (SF-295): 42 µM (inactive) | GI50 (NCI-H23): 31.5 µM (inactive)

CN(C)c1n/c(=N/Cc2ccccn2)ss1
GI50 (CCRF-CEM): 1.24 µM (inactive) | GI50 (HOP-92): > 10 µM (inactive) | GI50 (SNB-19): > 10 µM (inactive) | GI50 (PC-3): > 10 µM (inactive) | GI50 (HCC 2998): > 10 µM (inactive) | GI50 (HT-29): > 10 µM (inactive) | GI50 (A549): > 10 µM (inactive) | GI50 (HOP-62): > 10 µM (inactive) | GI50 (MDA-MB-435): > 10 µM (inactive) | GI50 (ACHN): > 10 µM (inactive) | GI50 (NCI/ADR-RES): > 10 µM (inactive) | GI50 (HCT-15): 9.68 µM | GI50 (SF-268): > 10 µM (inactive) | GI50 (SF-539): > 10 µM (inactive) | GI50 (CAKI-1): > 7.94 µM (inactive) | GI50 (TK-10): > 10 µM (inactive) | GI50 (K562): 2.51 µM (inactive) | GI50 (SN12C): 9.77 µM (inactive) | GI50 (SF-295): > 10 µM (inactive) | GI50 (NCI-H23): > 10 µM (inactive)

CC(=O)OCc1ccc2oc(=O)c(C(=O)Oc3ccccc3)cc2c1
GI50 (CCRF-CEM): > 100 µM (inactive) | GI50 (HOP-92): 20.3 µM (inactive) | GI50 (SNB-19): > 100 µM (inactive) | GI50 (PC-3): 16.2 µM (inactive) | GI50 (HCC 2998): > 100 µM (inactive) | GI50 (HT-29): 30.1 µM (inactive) | GI50 (A549): > 100 µM (inactive) | GI50 (HOP-62): > 100 µM (inactive) | GI50 (MDA-MB-435): 61.9 µM (inactive) | GI50 (ACHN): 91.6 µM (inactive) | GI50 (NCI/ADR-RES): > 100 µM (inactive) | GI50 (HCT-15): 19.5 µM | GI50 (SF-268): 55.7 µM (inactive) | GI50 (SF-539): > 100 µM (inactive) | GI50 (CAKI-1): 20 µM (inactive) | GI50 (TK-10): 23.8 µM (inactive) | GI50 (K562): 3.72 µM (inactive) | GI50 (SN12C): 30.1 µM (inactive) | GI50 (SF-295): > 100 µM (inactive) | GI50 (NCI-H23): 32.6 µM (inactive)

CC(C)[C@@H](C(=O)N1CCC[C@H]1C(=O)OCc1ccccc1)N(C)C(=O)[C@H](C(C)C)N(C)C(=O)[C@H](Cc1ccccc1)N(C)C(=O)[C@H](NC(=O)OC(C)(C)C)C(C)C (Boc-[dV][NMeF][NMeV][NMeV]P-OBn)
GI50 (CCRF-CEM): > 50 µM (inactive) | GI50 (HOP-92): > 50 µM (inactive) | GI50 (SNB-19): > 50 µM (inactive) | GI50 (PC-3): > 50 µM (inactive) | GI50 (HCC 2998): > 50 µM (inactive) | GI50 (HT-29): > 50 µM (inactive) | GI50 (A549): > 50 µM (inactive) | GI50 (HOP-62): > 50 µM (inactive) | GI50 (MDA-MB-435): > 50 µM (inactive) | GI50 (ACHN): > 50 µM (inactive) | GI50 (NCI/ADR-RES): > 50 µM (inactive) | GI50 (HCT-15): 17.3 µM | GI50 (SF-268): > 50 µM (inactive) | GI50 (SF-539): > 50 µM (inactive) | GI50 (CAKI-1): > 50 µM (inactive) | GI50 (TK-10): > 50 µM (inactive) | GI50 (K562): > 50 µM (inactive) | GI50 (SN12C): > 50 µM (inactive) | GI50 (SF-295): > 50 µM (inactive) | GI50 (NCI-H23): > 50 µM (inactive)
